Like-named read-outs stand apart in the source and are kept apart here.
Tests used:
Format in all cases: binding
[1] = target: T1, Rhodobacter sphaeroides rsLacBP12 variant F191C, SEQ ID NO: 46, Acrylodan conjugate (Cereibacter sphaeroides, UniProt Q3IWV8, F228C); parameters: key: nb: no binding
T1 construct: Acrylodan on Cys191
Protocol: (§1) 12-, 24-, or 48-point logarithmic titration series were prepared on a Tecan Freedom liquid-handling robot, using an in-house program, ‘TitrationPlate’, that compiles an abstract description of a multi-component titration series into machine instructions for operating the robot. Temperature-dependent fluorescence emission intensities of 20 μL aliquots, each containing 10 μM protein, were measured in 384-well microtiter plates in a LightCycler 480 II (Roche) using excitation and emission wavelengths available for this instrument that most closely matched the optical characteristics of the fluorescent conjugate. Temperatures were advanced in 1K steps. At each temperature, data was collected at 1-second intervals for 60 seconds at which point the signal had relaxed to a steady value associated with the new temperature. […] The in-house program ‘TitrationMeltPlate’ was used to convert these observations into time-independent datasets that record fluorescence as a function of temperature for each well and associate wells with their concentration of titrant and additive. Management tools were developed to maintain a database of titrations and their analyses.
(§2) Ligand- and wavelength-dependent emission intensities were recorded on a Nanodrop3300 (Thermo Scientific) at room temperature. Using the LED closest to the optimal excitation wavelength of the fluorophore (UV, 365 nm; blue, 470 nm; ‘white’, 460-550 nm).
(§3) Monochromatic emission intensities Iλ (these intensities correspond to a bandpass intensity, recorded either with a physical filter in the case of the Roche LightCycler, or by integrating in the interval λ−δ, λ+δ in the case of an emission spectrum), were fit to Iλ=^apoβλ(1−ytrue)+^satβλytrue 1 where ^apoβλ and ^satβλ are the fluorescence baselines associated with the ligand-free and ligand-bound states of the protein, respectively, and ytrue the fractional saturation of the protein (Layton and Hellinga, 2010, Biochemistry, 49, 10831-41). Baseline functions can be constant, linear, or a second-order polynomial.

[2] = target: T2, Thermanaerovibrio acidaminovorans taLacBP14 variant W186C, SEQ ID NO: 48, Badan conjugate (Thermanaerovibrio acidaminovorans, UniProt D1B6P5, C271A/C333A/W212C); parameters: key: nb: no binding; settings: λ1 515, λ2 491 nm
T2 construct: Badan on Cys186
Protocol: as §1, §2, §3

[3] = target: T3, Thermanaerovibrio acidaminovorans taLacBP14 variant W186C, SEQ ID NO: 48, Acrylodan conjugate (Thermanaerovibrio acidaminovorans, UniProt D1B6P5, C271A/C333A/W212C); parameters: key: nb: no binding
T3 construct: Acrylodan on Cys186
Protocol: as §1, §2, §3

[4] = system: Anaeromyxobacter dehalogenans adLacBP9 variant F191C, SEQ ID NO: 44, Badan conjugate; assay: Fluorescence titration of conjugate; parameters: key: nb: no binding
Protocol: as §1, §2, §3

[5] = system: Anaeromyxobacter dehalogenans adLacBP9 variant F191C, SEQ ID NO: 44, Acrylodan conjugate; assay: Fluorescence titration of conjugate; parameters: key: nb: no binding
Protocol: as §1, §2, §3

[6] = target: Marinobacter sp. msLacBP6 variant 187C, L70I, SEQ ID NO: 52, Acrylodan conjugate; assay: Fluorescence titration of conjugate (affinity tuning); settings: λ1 452, λ2 582 nm
[7] = target: Marinobacter sp. msLacBP6 variant Y187C (187C), SEQ ID NO: 38, Badan conjugate; assay: Fluorescence titration of conjugate
[8] = target: T4, Marinobacter adhaerens maLacBP8 variant F189C, SEQ ID NO: 43, Acrylodan conjugate (Marinobacter adhaerens, UniProt E4PNW2, C105A/C90A/F252C); assay: Fluorescence titration of conjugate
T4 construct: Acrylodan on Cys189

[9] = system: Marinobacter sp. msLacBP6 187C mutants (variants of Table 7); assay: Affinity summary of msLacBP6 187C affinity-tuning mutants
Description: In the PCS we mutated F68 (F98 in ttLacBP1) and D220 (D250 in ttLacBP1). […] It could therefore be considered part of a secondary complementary surface layer (SCS). In the interface we mutated L70 (L100 in ttLacBP1), which is located at the periphery of the lactate-binding site, and forms a contact from the N- to the C-terminal domain across the inter-domain interface.
Both PCS and SCS mutations perturbed the spectral shapes of the lactate-mediated responses. […] These affinity-tuned sensors therefore provide a suitable set for clinical chemistry applications.

[10] = target: Marinobacter sp. msLacBP6 variant Y187C (187C), SEQ ID NO: 38, Acrylodan conjugate; assay: Fluorescence titration of conjugate
[11] = target: Marinobacter sp. msLacBP6 variant 187C, F68L, SEQ ID NO: 49, Badan conjugate; assay: Fluorescence titration of conjugate (affinity tuning); settings: λ1 463, λ2 535 nm
[12] = target: Marinobacter sp. msLacBP6 variant 187C, P150S, SEQ ID NO: 55, Badan conjugate; assay: as above; settings: read-out: trueKd (lactate); monochromatic, 528 nm
[13] = target: Marinobacter sp. msLacBP6 variant G170C, SEQ ID NO: 36, Acrylodan conjugate; assay: Fluorescence titration of conjugate; settings: λ1 518, λ2 490 nm
[14] = target: T5, Marinobacter adhaerens maLacBP8 variant F189C, SEQ ID NO: 43, Badan conjugate (Marinobacter adhaerens, UniProt E4PNW2, C105A/C90A/F252C); assay: Fluorescence titration of conjugate
T5 construct: Badan on Cys189

[15] = read-out: appKd (lactate), approximate, text statement for Acrylodan and Badan conjugates

T1 sequence (Q3IWV8 entry or part of it F228C): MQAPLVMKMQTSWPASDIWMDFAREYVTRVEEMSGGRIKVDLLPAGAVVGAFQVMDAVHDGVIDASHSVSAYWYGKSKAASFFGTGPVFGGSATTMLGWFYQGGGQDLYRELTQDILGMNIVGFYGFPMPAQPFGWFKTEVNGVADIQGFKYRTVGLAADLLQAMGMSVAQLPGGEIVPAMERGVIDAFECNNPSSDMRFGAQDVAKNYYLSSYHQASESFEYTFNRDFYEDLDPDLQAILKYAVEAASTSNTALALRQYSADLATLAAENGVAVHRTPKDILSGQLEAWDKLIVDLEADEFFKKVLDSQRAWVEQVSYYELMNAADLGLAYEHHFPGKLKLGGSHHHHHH
T3 sequence (D1B6P5 entry or part of it W212C/C271A/C333A): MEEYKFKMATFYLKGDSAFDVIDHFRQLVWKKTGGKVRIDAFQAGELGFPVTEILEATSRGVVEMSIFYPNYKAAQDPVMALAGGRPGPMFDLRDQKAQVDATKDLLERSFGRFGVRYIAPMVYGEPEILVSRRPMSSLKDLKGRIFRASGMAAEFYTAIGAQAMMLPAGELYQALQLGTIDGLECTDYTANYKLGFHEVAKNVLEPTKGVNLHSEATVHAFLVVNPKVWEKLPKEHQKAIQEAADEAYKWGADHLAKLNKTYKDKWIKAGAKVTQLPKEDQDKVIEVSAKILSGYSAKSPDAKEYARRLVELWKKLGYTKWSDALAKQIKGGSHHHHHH
T2 sequence (D1B6P5 entry or part of it W212C/C271A/C333A): as above
T4 sequence (E4PNW2 entry or part of it C90A/C105A/F252C): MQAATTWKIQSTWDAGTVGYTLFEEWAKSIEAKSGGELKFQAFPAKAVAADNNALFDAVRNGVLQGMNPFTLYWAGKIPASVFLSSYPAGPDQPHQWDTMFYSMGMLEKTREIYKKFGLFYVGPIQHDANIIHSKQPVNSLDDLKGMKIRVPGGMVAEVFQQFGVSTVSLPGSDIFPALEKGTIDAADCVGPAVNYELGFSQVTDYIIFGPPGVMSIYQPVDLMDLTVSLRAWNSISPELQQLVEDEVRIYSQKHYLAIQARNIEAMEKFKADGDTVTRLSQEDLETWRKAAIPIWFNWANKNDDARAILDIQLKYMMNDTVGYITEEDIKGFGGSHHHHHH
T5 sequence (E4PNW2 entry or part of it C90A/C105A/F252C): as above

In the case of C[C@H](O)C(=O)O [lactate], the “appKd (lactate)” value [1] is reported as “nb”, the “trueKd (lactate)” value [1] is reported as “nb” and the “appKd (lactate)” value [2] is reported as “nb”. The “trueKd (lactate)” value [2] was “nb”, the “appKd (lactate)” value [3] was “nb” and the “trueKd (lactate)” value [3] was “nb”. For the same compound, the “appKd (lactate)” value [4] was “nb”, the “trueKd (lactate)” value [4] was “nb” and the “appKd (lactate)” value [5] was “nb”. For the same compound, the “trueKd (lactate)” value [5] was “nb”, the Kd ([6]; read-out: appKd (lactate)) was 400 µM and the Kd ([6]; read-out: trueKd (lactate)) was 300 µM. The Kd [7, 15] was about 400 µM, the Kd ([7]; read-out: appKd (lactate), λ1 460, λ2 537 nm) was 300 µM and the Kd ([7]; read-out: appKd (lactate), λ1 539, λ2 459 nm (Table 6)) was 110 µM. The Kd ([7]; read-out: trueKd (lactate), λ1 460, λ2 537 nm) was 200 µM, the Kd ([7]; read-out: trueKd (lactate), λ1 539, λ2 459 nm (Table 6)) was 250 µM and the Kd [8] was 1500 µM. The “effect of F68 mutations on lactate affinity” value ([9]; F68 mutations in 187C background) was “did not greatly affect lactate affinity”, the Kd ([9]; read-out: lactate affinities (range over variants), msLacBP6 Acrylodan and Badan conjugate variants) was 200 to 24000 µM and the Kd [10, 15] was about 400 µM. For the same compound, the Kd ([10]; read-out: appKd (lactate), λ1 452, λ2 482 nm as printed in Table 5) was 400 µM, the Kd ([10]; read-out: appKd (lactate), λ1 452, λ2 582 nm (FIG. 5A, Table 7)) was 400 µM and the Kd ([10]; read-out: appKd (lactate), λ1 483, λ2 451 nm (Table 6)) was 230 µM. It also gave a Kd ([10]; read-out: trueKd (lactate), λ1 452, λ2 482 nm as printed in Table 5) of 300 µM, a Kd ([10]; read-out: trueKd (lactate), λ1 452, λ2 582 nm (FIG. 5A, Table 7)) of 300 µM and a Kd ([10]; read-out: trueKd (lactate), λ1 483, λ2 451 nm (Table 6)) of 350 µM. For the same compound, the Kd ([11]; read-out: appKd (lactate)) was 400 µM, the Kd ([11]; read-out: trueKd (lactate)) was 400 µM and the Kd [12] was 14400 µM. It also gave a Kd ([13]; read-out: appKd (lactate)) of 10 µM, a Kd ([13]; read-out: trueKd (lactate)) of 5 µM and a Kd [14] of 600 µM.

Source: patent publication US11099176B2 (priority 2015, dated 2021)
